Measured values taken from US11976083B2, “Inhibitors of peptidylarginine deiminases” (Gilead Sciences, Inc., priority 2020, dated 2024).

Experiments:
[1] = from COc1cc(C(=O)OC(C)C)cc2nc(-c3cc4ccc([C@@H](C)N)nc4n3CCCCCc3ccccc3C(=O)O)n(C)c12; amide bond; HATU; DCM; 24.6 mM; 25.0 °C; 16.0 h
[2] = molecular target: T1, human PAD4 (Homo sapiens, UniProt Q9UM07); test: In vitro PAD4 BAEE biochemical assay; settings: BAEE substrate 3 mM, 5 nM PAD4, 2 mM calcium chloride; geometric mean of multiple experiments
T1 construct: human PAD4 (NM_012387), A2-P663, was PCR amplified; His-SUMO (N, cleaved yes); made in house; host or cells: E. coli BL21(DE3)
Outline: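 Assay was run at 25 °C using 3 mM BAEE and 5 nM human PAD4 after a 30 min compound preincubation; ammonia produced over 2 h was quantified by OPA-derived fluorescence. Full inhibition was defined by 50 µM BB-Cl-Amidine, and IC50 came from variable-slope nonlinear regression.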

[3] = system: collagen induced arthritis (CIA); settings: prophylactic treatment, murine CIA model; cited from earlier work
[4] = system: models of chronic and acute inflammatory diseases; settings: MRL/lpr mouse lupus, hemorrhagic shock in rats, mouse CLP sepsis, mouse DSS-colitis, ApoE-/- arteriosclerosis, diabetic wound healing models; cited from earlier work

T1 sequence (Q9UM07 2-663): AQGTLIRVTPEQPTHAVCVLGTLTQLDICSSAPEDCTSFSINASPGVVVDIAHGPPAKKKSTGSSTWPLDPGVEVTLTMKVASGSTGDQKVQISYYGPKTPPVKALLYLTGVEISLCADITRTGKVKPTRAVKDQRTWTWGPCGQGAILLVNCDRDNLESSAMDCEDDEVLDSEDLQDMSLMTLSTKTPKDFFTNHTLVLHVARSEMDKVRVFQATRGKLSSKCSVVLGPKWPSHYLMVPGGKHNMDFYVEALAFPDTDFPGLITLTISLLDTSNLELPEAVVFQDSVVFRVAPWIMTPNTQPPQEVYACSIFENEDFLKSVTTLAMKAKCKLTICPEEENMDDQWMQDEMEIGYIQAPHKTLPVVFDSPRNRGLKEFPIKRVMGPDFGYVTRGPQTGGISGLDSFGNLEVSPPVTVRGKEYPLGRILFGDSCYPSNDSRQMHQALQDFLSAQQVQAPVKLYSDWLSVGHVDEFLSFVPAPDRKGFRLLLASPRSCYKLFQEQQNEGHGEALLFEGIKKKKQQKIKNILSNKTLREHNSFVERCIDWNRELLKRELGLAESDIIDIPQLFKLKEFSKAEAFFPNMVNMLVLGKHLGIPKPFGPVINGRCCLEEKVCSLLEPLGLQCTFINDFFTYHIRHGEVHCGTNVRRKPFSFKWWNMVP

Compound: COc1cc(C(=O)OC(C)C)cc2nc(-c3cc4ccc5nc4n3CCCCCc3ccccc3C(=O)N[C@@H]5C)n(C)c12
- ring closure, yield of all isomers [1]: 70.9%

Compound: CC(C)n1c(-c2cc3ccc4nc3n2CCCCCc2nc(Cl)ccc2C(=O)N[C@@H]4C)nc2cc(C(=O)N3C[C@H](N)[C@@H]4CC[C@H]3C4)cc(F)c21 [Example 946, (2~{R})-17-[5-[(1~{S},4~ {R},5~{R})-4-amino-2-azabicyclo [3.2.1]octane-2-carbonyl]-7-fluoro-1-isopropyl-benzimidazol-2-yl]-8-chloro-2-methyl-3,9,16,22-tetrazatetracyclo[14.5.2.0^ {5,10}.0^{19,23}]tricosa-1(22),5(10),6,8,17,19(23),20-heptaen-4-one]
- IC50 [2]: 69 nM

Compound: C[C@H]1NC(=O)c2ccc(Cl)nc2CCCCCn2c(-c3nc4cc(C(=O)N5C[C@H](N)[C@@H]6CC[C@H]5C6)cc(F)c4n3CC(C)(C)C)cc3ccc1nc32 [Example 947, (2~{R})-17-[5-[(1~{S},4~ {R},5~{R})-4-amino-2-azabicyclo[3.2.1]octane-2-carbonyl]-1-(2,2-dimethylpropyl)-7-fluoro-benzimidazol-2-yl]-8-chloro-2-methyl-3,9,16,22-tetrazatetracyclo [14.5.2.0^{5,10}.0^{19,23}] tricosa-1(22),5(10),6,8,17, 19(23),20-heptaen-4-one]
- IC50 [2]: 92 nM

Compound: COc1cc(C(=O)N2C[C@H](N)[C@@H]3CC[C@H]2C3)cc2nc(-c3cc4ccc5nc4n3CCCCCC[C@@](C)(F)C(=O)N[C@@H]5C)n(C)c12 [Example 948, (8~{R},11~{R})-17-[5-[(1~{S},4~{R},5~{R})-4-amino-2-azabicyclo[3.2.1]octane-2-carbonyl]-7-methoxy-1-methyl-benzimidazol-2-yl]-8-fluoro-8,11-dimethyl-1,10,19-triazatricyclo[10.5.2.0^ {15,18}]nonadeca-12(19), 13,15(18),16-tetraen-9-one]
- IC50 [2]: 28 nM

Compound: COc1cc(C(=O)N2C[C@H](N)[C@@H]3CC[C@H]2C3)cc2nc(-c3cc4ccc5nc4n3CCCCCC[C@](C)(F)C(=O)N[C@@H]5C)n(C)c12 [Example 949, (8~{S},11~{R})-17-[5-[(1~{S},4~{R},5~{R})-4-amino-2-azabicyclo[3.2.1]octane-2-carbonyl]-7-methoxy-1-methyl-benzimidazol-2-yl]-8-fluoro-8,11-dimethyl-1,10,19-triazatricyclo [10.5.2.0^{15,18}]nonadeca-12(19),13,15(18),16-tetraen-9-one]
- IC50 [2]: 31 nM

Compound: COc1cc(C(=O)N2C[C@H](N)[C@@H]3CC[C@H]2C3)cc2nc(-c3cc4ccc5nc4n3CCCc3ccc4cccc(c4c3)C(=O)N[C@@H]5C)n(C)c12 [Example 950, (4~{R})-10-[5-[(1~{S},4~{R},5~ {R})-4-amino-2-azabicyclo [3.2.1]octane-2-carbonyl]-7-methoxy-1-methyl-benzimidazol-2-yl]-4-methyl-3,6,11-triazapentacyclo [13.6.2.2^{5,8}.0^{7,11}.0^ {18,22}]pentacosa-1(22),5,7,9, 15(23),16,18,20,24-nonaen-2-one]
- IC50 [2]: 38 nM

Compound: [2H]C1([2H])CCCn2c(-c3nc4cc(C(=O)N5C[C@H](N)[C@@H]6CC[C@H]5C6)cc(F)c4n3C3CC3)cc3ccc(nc32)[C@@H](C)NC(=O)c2ccc(Cl)nc2C1([2H])[2H] [Example 951, (2~{R})-17-[5-[(1~{S},4~{R}, 5~{R})-4-amino-2-azabicyclo [3.2.1]octane-2-carbonyl]-1-cyclopropyl-7-fluoro-benzimidazol-2-yl]-8-chloro-11,11,12,12-tetradeuterio-2-methyl-3,9,16,22-tetrazatetracyclo[14.5.2.0^ {5,10).0^{19,23}]tricosa-1(22),5(10),6,8,17,19(23),20-heptaen-4-one]
- IC50 [2]: 24 nM

Compound: C[C@H]1NC(=O)[C@@H]2C[C@@]2(F)CCCCCn2c(-c3nc4cc(C(=O)N5C[C@H](N)[C@@H]6CC[C@H]5C6)cc(F)c4n3C3C[C@H]3F)cc3ccc1nc32 (stereo partly drawn) [Example 952, (2~{R},5~{S},7~{S})-14-[5-[(1~{S},4~{R},5~{R})-4-amino-2-azabicyclo[3.2.1]octane-2-carbonyl]-7-fluoro-1-[(1~{R},2~{R})-2-fluorocyclopropyl]benzimidazol-2-yl]-7-fluoro-2-methyl-3,13,19-triazatetracyclo [11.5.2.0^{5,7}.0^{16,20}] icosa-1(19),14,16(20),17-tetraen-4-one]
- IC50 [2]: 21 nM

Compound: COc1cc(C(=O)N2C[C@H](N)[C@@H]3CC[C@H]2C3)cc2nc(-c3cc4ccc5nc4n3CCCCCc3ccc(F)cc3C(=O)N[C@@H]5C)n(C3CC3)c12 [Example 953, (2~{R})-17-[5-[(1~{S},4~{R}, 5~{R})-4-amino-2-azabicyclo [3.2.1]octane-2-carbonyl]-1-cyclopropyl-7-methoxy-benzimidazol-2-yl]-7-fluoro-2-methyl-3,16,22-triazatetracyclo[14.5.2.0^ {5,10}.0^{19,23}]tricosa-1(22),5(10),6,8,17,19(23), 20-heptaen-4-one]
- IC50 [2]: 68 nM

Compound: COc1cc(C(=O)N2C[C@H](N)[C@@H]3CC[C@H]2C3)cc2nc(-c3cc4ccc5nc4n3CCCCCc3ccc(Cl)nc3C(=O)N[C@@H]5C)n(C)c12 [Example 954, (2~{R})-17-[5-[(1~{S},4~{R}, 5~{R})-4-amino-2-azabicyclo [3.2.1]octane-2-carbonyl]-7-methoxy-1-methyl-benzimidazol-2-yl]-7-chloro-2-methyl-3,6,16,22-tetrazatetracyclo[14.5.2.0^ {5,10}.0^{19,23}]tricosa-1(21),5(10),6,8,17,19,22-heptaen-4-one]
- IC50 [2]: 32 nM

Compound: COc1cc(C(=O)N2C[C@H](N)[C@@H]3CC[C@H]2C3)cc2nc(-c3cc4ccc5nc4n3CCCC[C@]3(F)C[C@H]3C(=O)N3CCC[C@H]53)n(C)c12 [Example 955, (2~{R},8~{S},10~{S})-16-[5-[(1~{S},4~{R},5~{R})-4-amino-2-azabicyclo[3.2.1]octane-2-carbonyl]-7-methoxy-1-methyl-benzimidazol-2-yl]-10-fluoro-6,15,21-triazapentacyclo [13.5.2.0^{2,6}.0^{8,10}.0^ {18,22}]docosa-1(21),16, 18(22),19-tetraen-7-one]
- IC50 [2]: 81 nM

Compound: CCn1c(-c2nc3cc(C(=O)N4CCC[C@@H](N)C4)cc(OC)c3n2C)cc2cccnc21.Cl [GSK199]
- clinical and histological scores [3]: improvement of clinical and histological scores

Compound: NC(=O)[C@H](CCCN=C(N)CCl)NC(=O)c1ccccc1 [chloroamidine]
- clinical and histological scores [3]: improvement of clinical and histological scores
- clinical, inflammatory, histopathological and mechanical end points [4]: reduction of clinical, inflammatory, histopathological and mechanical end points

Compound: (2~{R})-17-[5-[(1~{S),4~{R}, 5~{R})-4-amino-2-azabicyclo [3.2.1]octane-2-carbonyl]-1- cyclopropyl-benzimidazol-2- yl]-8-chloro-2-methyl-3,9,16,22- tetrazatetracyclo[14.5.2.0^ {5,10}.0^{19,23}]tricosa- 1(22),5(10),6,8,17,19(23),20- heptaen-4-one [Example 926]
- IC50 [2]: 23 nM

Compound: (2~{R})-17-[5-[(1~{S},4~{R}, 5~{R})-4-amino-2-azabicyclo [3.2.1]octane-2-carbonyl]- 7-(difluoromethoxy)-1-methyl- benzimidazol-2-yl]-8-chloro- 2-methyl-3,9,16,22- tetrazatetracyclo[14.5.2.0^ {5,10).0^{19,23}]tricosa- 1(22),5(10),6,8,17,19(23),20- heptaen-4-one [Example 762]
- IC50 [2]: 26 nM

Compound: (2~{R})-17-[5-[(1~{S}, 4~{R},5~{R})-4-amino-2- azabicyclo[3.2.1]octane-2- carbonyl]-1-cyclopropyl- 7-fluoro-benzimidazol-2-yl]- 6-(difluoromethyl)-2- methyl-3,7,16,22- tetrazatetracyclo[14.5.2.0^ {5,10}.0^{19,23}]tricosa- 1(22),5(10),6,8,17,19(23),20- heptaen-4-one [Example 718]
- IC50 [2]: 18 nM

Compound: YW3-56
- clinical, inflammatory, histopathological and mechanical end points [4]: reduction of clinical, inflammatory, histopathological and mechanical end points
